Assay results as given in US20250281462A1, “THERAPEUTICALLY EFFECTIVE ORAL ADMINISTRATION OF A 2 ARYLBENZIMIDAZOLE” (Tranquis Therapeutics, Inc., priority 2021, published 2025).
Where two headings read alike, the source gives them in different places.

Legend:
[1] = Plasma and brain concentrations after single oral dose 45 mg/kg in mice; type: in vivo; settings: for Kp: brain, 45 mg/kg, mice, 45 mg/kg p.o.
Experimental: Mice were administered a single oral dose of 45 mg/kg TQS-168. TQS-168 was prepared at a concentration of 5.0 mg/mL as a solution in 10% polyethylene glycol (PEG) 400|130% Kleptose (Roquette) 60% water.
Concentrations in plasma and in brain were measured at various timepoints and various pharmacokinetic parameters were calculated, as shown below in Tables 4 and 5 and in FIGS. 19A and 19B.
TQS-168 was prepared as a 4.5 mg/ml solution in PEG400 10%| Kleptose 30% sterile water 60%. A single oral dose of 45 mg/kg was administered. Concentrations of TQS-621 were measured in plasma and brain over time.

[2] = Plasma concentrations of TQS-168 and TQS-621 after single oral dose 50 mg/kg in mice, three formulations; type: in vivo; settings: male, C57BL/6, mouse, plasma, po, 50 mg/kg; for Cmax / AUC(0-t) / Tmax / AUC(0-inf) / half-life: mice plasma; for Cmax: read-out: Cmax; for Tmax: read-out: tmax
Experimental: In a second experiment, mice were administered 50 mg/kg TQS-168 by oral gavage. For Group 1, TQS-168 was prepared at a concentration of 5.0 mg/mL in a suspension with […] in PBS. For Group 2, TQS-168 was prepared at a concentration of 5.0 mg/mL as a solution in 10 polyethylene glycol (PEG) 400|30 Kleptose (Roquete)|60% water.
Plasma exposures for Group 1 mice (ng/mL) are presented in Table 2 and for Group 2 mice in Table 3.
C57BL/6 male mice were administered a single dose of TQS-168 at 50 mg/kg using one of three formulations: Group 1-5.0 mg/ml suspension in 0.5% methylcellulose in PBS; Group 2-5.0 mg/ml solution in PEG400 (Fluka) 10%|Kleptose (Roquette) 30%|sterile water 60%; Group 3-5.0 mg/ml suspension in Labrafil M 1944 CS (Gattefosse) 30%|Masine CC (Gattefosse) 5%|Miglyol 812N 10%|sterile water 55%.
Plasma concentrations of TQS-168 and TQS-621 were measured overtime.

[3] = mice brain, TQS-168 45 mg/kg p.o., solution PEG 400/Kleptose/water
[4] = mice plasma, TQS-168 45 mg/kg p.o., solution PEG 400/Kleptose/water
[5] = mouse, po, mice brain, TQS-168 45 mg/kg p.o., solution PEG 400/Kleptose/water
[6] = mouse, po, mice plasma, TQS-168 45 mg/kg p.o., solution PEG 400/Kleptose/water
[7] = TQS-168 50 mg/kg p.o., Group 1 (suspension, 0.5% methylcellulose in PBS), individual mouse
[8] = TQS-168 50 mg/kg p.o., Group 1 (suspension, 0.5% methylcellulose in PBS), mean
[9] = TQS-168 50 mg/kg p.o., Group 2 (solution, PEG400/Kleptose/water), individual mouse
[10] = TQS-168 50 mg/kg p.o., Group 2 (solution, PEG400/Kleptose/water), mean
[11] = TQS-168 50 mg/kg p.o., Group 3 (suspension, Labrafil/Masine/Miglyol/water), individual mouse
[12] = TQS-168 50 mg/kg p.o., Group 3 (suspension, Labrafil/Masine/Miglyol/water), mean

## CC(C)(C)c1ccc(-c2nc3ccccc3[nH]2)cc1 [TQS-168, 2-(4-tert-butylphenyl)-1H-benzimidazole]
[1]; [3]
  AUCExtr: 0.308%
  AUCInf: 24668 ng·h/g
  AUCInf/D: 548 kg·ng·h/g/mg
[1]; mice brain, TQS-168 45 mg/kg p.o., solution PEG 400/Kleptose/water, last time point 24 hr
  AUClast: 24592 ng·h/g
[1]; [4]
  AUCExtr: 0.188%
  AUCInf/D: 302 kg·ng·h/mL/mg
[1]; mouse, po, read-out: Brain-to-plasma AUC ratio
  Kp: 1.81
[1]; mouse, po, read-out: Brain-to-plasma Cmax ratio
  Kp: 1.84
[1]; [5]
  Cmax: 4260 ng/g
  MRT inf: 3.45 h
  Tmax: 1 h
  half-life: 3.66 h
[1]; [6]
  AUC(0-inf): 13600 ng·h/mL
  Cmax: 2310 ng/mL
  MRT inf: 3.35 h
  Tmax: 0.5 h
  half-life: 3.26 h
[1]; mouse, po, mice plasma, TQS-168 45 mg/kg p.o., solution PEG 400/Kleptose/water, last time point 24 hr
  AUC(0-t): 13600 ng·h/mL
[2]; 50 mg/kg p.o., Group 1 (suspension)
  Cmax: 4.5 µM
[2]; 50 mg/kg p.o., Group 2 (solution)
  Cmax: 8.54 µM
[2]; 50 mg/kg p.o., Group 3 (suspension)
  Cmax: 2.4 µM
[2]; [7]
  AUC(0-t): 5040 ng·h/mL
  Cmax: 1280 ng/mL
  Tmax: 1 h
[2]; [8]
  AUC(0-inf): 8110 ng·h/mL
  AUC(0-t): 5970 ng·h/mL
  half-life: 4.3 h
  Cmax: 1120 ng/mL
  Tmax: 0.833 h
[2]; [9]
  AUC(0-inf): 11400 ng·h/mL
  AUC(0-t): 10600 ng·h/mL
  half-life: 2.81 h
  Cmax: 1950 ng/mL
  Tmax: 0.5 h
[2]; [10]
  AUC(0-inf): 11400 ng·h/mL
  AUC(0-t): 10700 ng·h/mL
  half-life: 2.82 h
  Cmax: 2140 ng/mL
  Tmax: 0.833 h
[2]; [11]
  AUC(0-inf): 4250 ng·h/mL
  AUC(0-t): 4110 ng·h/mL
  half-life: 1.47 h
  Cmax: 611 ng/mL
[2]; [12]
  AUC(0-inf): 4150 ng·h/mL
  AUC(0-t): 3930 ng·h/mL
  half-life: 1.71 h
  Cmax: 611 ng/mL
  Tmax: 3.17 h
[2]; mice, 50 mg/kg p.o., Group 1 (suspension, methylcellulose in PBS), individual mouse, read-out: Calculated Concentration in plasma
  concentration at 0.25 h: 586 ng/mL
[2]; mice, 50 mg/kg p.o., Group 1 (suspension, methylcellulose in PBS), mean, read-out: Calculated Concentration in plasma
  concentration at 0.25 h: 653 ng/mL
[2]; mice, 50 mg/kg p.o., Group 1 (suspension, methylcellulose in PBS), 0.5 hr, mean, read-out: Calculated Concentration in plasma
  concentration at 0.5 h: 949 ng/mL
